{"source": "patent US10457710B2", "about": "“Antimicrobial peptides, their variants and uses” (priority 2015, dated 2019)", "type_in_all_cases": "cell-based", "key": {"[1]": {"system": "clinical strains of E. cloacae", "test": "MIC, microdilution, clinical strains", "settings": "0.02% BSA, 0.2% acetic acid", "in_short": "(§1)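 Overnight MH agar colonies were suspended in MH broth to 5.0×10^5 cfu/ml, mixed with serial peptide dilutions (0.125–128 μg/ml) and incubated at 37° C for 20 to 24 hours. Yeast MICs were run the same way in potato dextrose broth, and wells were scored visually.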"}, "[2]": {"system": "clinical strains of E. coli", "test": "MIC, microdilution, clinical strains", "settings": "microdilution, Muller Hinton broth-cation adjusted, 0.02% BSA, 0.2% acetic acid", "in_short": "as §1"}, "[3]": {"system": "clinical strains of K. pneumoniae", "test": "MIC, microdilution, clinical strains", "settings": "0.02% BSA, 0.2% acetic acid", "in_short": "as §1"}, "[4]": {"system": "clinical strains of P. aeruginosa", "test": "MIC, microdilution, clinical strains", "settings": "0.02% BSA, 0.2% acetic acid", "in_short": "as §1"}, "[5]": {"system": "clinical strains of Proteus mirabilis", "test": "MIC, microdilution, clinical strains", "settings": "0.02% BSA, 0.2% acetic acid", "in_short": "as §1"}, "[6]": {"system": "clinical strains of S. aureus", "test": "MIC, microdilution, clinical strains", "settings": "0.02% BSA, 0.2% acetic acid", "in_short": "as §1"}, "[7]": {"system": "clinical strains of S. pneumoniae", "test": "MIC, microdilution, clinical strains", "settings": "0.02% BSA, 0.2% acetic acid", "in_short": "as §1"}, "[8]": {"system": "clinical strains of Serratia marcescens", "test": "MIC, microdilution, clinical strains", "settings": "0.02% BSA, 0.2% acetic acid", "in_short": "as §1"}, "[9]": {"system": "clinical strains of Acinetobacter baumannii", "test": "MIC, microdilution, clinical strains", "set-up": "unit: μg/ml", "settings": "0.02% BSA, 0.2% acetic acid", "procedure": "Minimum inhibition concetrations (MICs) were determined against Escherichia coli (ATCC 25922), Staphylococcus aureus (ATCC 25923), Klebsiella pneumoniae (ATCC 10031) and Pseudomonas aeruginosa (ATCC 27853). Also clinical strains of E. coli, K. pneumoniae, E. cloacae, P. aeruginosa, Serratia marcescens, Proteus mirabilis, S. pneumoniae, Acinetobacter baumannii, A. johnsonii and S. aureus were used for MICs assays. Additionally, clinical strains of yeast including Candida albicans, C. glabrata, C. parapsilosis and C. quillermondiae were used. The susceptibility of these microorganisms to Chain peptides were determined using micro broth dilution assay. Colonies of the respective microorganism from Muller Hinton (MH) agar plates incubated overnight were suspended in MH broth media and final concentration of microorganism was adjusted to 5.0×10^5 cfu/ml. An aliquot of 10 μl of each Chain peptide, or gentamicin, tetracycline as reference antibiotics were added in differing concentrations along with 90 μl of bacterial suspension to 96 well polypropylene plates and incubated at 37° C. for 20 to 24 hours. Concentrations of Chain peptides and reference antibiotics ranged from 0.125 to 128 μg/ml and the MICs were recorded as the lowest concentration with no visual growth of bacteria. Similarly, antifungal MICs were tested in Potato dextrose broth.\nClinical strains of yeasts including Candida albicans, C. glabrata, C. parapsilosis and C. quillermondiae were also tested with the 12 Chain peptides. The minimum inhibitory concentration (MICs) varied between these peptides and are presented in Tables 4a, 4b, 4c and 5a, 5b, 5c. Peptides Chain 105, 201 and 308 are broad spectrum antimicrobials with MICs between 0.5-32 μg/ml against all the bacteria and yeasts tested, except Serratia marcescens and Proteus mirabilis, against which the MICs were between 64-128 μg/ml. Peptide Chain 306 has narrow spectrum activity against E. coli at 1 μg/ml and for the rest of the bacterial strains at >32 μg/ml (FIG. 10c)."}, "C. glabrata": {"system": "C. glabrata", "test": "MIC, clinical yeast strains", "settings": "D-form peptide, concentrations tested 0.125 to 128 μg/ml", "in_short": "(§2)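 MIC = lowest peptide concentration without visual growth after 20–24 h at 37° C. Range 0.125–128 μg/ml, inoculum 5.0×10^5 cfu/ml, microdilution format. Antifungal tests used potato dextrose broth; bacterial tests used MH broth.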"}, "C. parapsilosis": {"system": "C. parapsilosis", "test": "MIC, clinical yeast strains", "settings": "D-form peptide, concentrations tested 0.125 to 128 μg/ml", "in_short": "as §2"}, "Candida albicans": {"system": "Candida albicans", "test": "MIC, clinical yeast strains", "settings": "D-form peptide, concentrations tested 0.125 to 128 μg/ml", "in_short": "as §2"}, "C. quillermondiae": {"system": "C. quillermondiae", "test": "MIC, clinical yeast strains", "settings": "clinical yeast strain 1; D-form peptide; concentrations tested 0.125 to 128 μg/ml", "in_short": "as §2"}}, "note": "Where a SMILES comes first, the peptide text is derived from it. [ ]: non-standard residue; d: D form.", "data": [{"smiles": "CC[C@@H](C)[C@@H](NC(=O)[C@@H](CC(C)C)NC(=O)[C@@H](CCCNC(=N)N)NC(=O)[C@H](N)CCCNC(=N)N)C(=O)N[C@H](Cc1c[nH]c2ccccc12)C(=O)N[C@H](CCCNC(=N)N)C(=O)N[C@H](CCCNC(=N)N)C(=O)N[C@H](Cc1ccccc1)C(=O)N[C@H](CCCCN)C(=O)N[C@H](Cc1c[nH]c2ccccc12)C(=O)N[C@H](CC(C)C)C(=O)N[C@H](CCCNC(=N)N)C(=O)O", "note": "[Chain204D] (H-[dR][dR][dL][dI][dW][dR][dR][dF][dK][dW][dL][dR]-OH)", "values": [{"measurement": "Minimum inhibitory concentration", "setting": "[1]; Enterobacter cloacae strain 1, Muller Hinton broth-cation adjusted", "value": 4}, {"measurement": "Minimum inhibitory concentration", "setting": "[1]; Enterobacter cloacae strain 2, Muller Hinton broth-cation adjusted", "value": 8}, {"measurement": "Minimum inhibitory concentration", "setting": "[1]; Enterobacter cloacae strain 3, Muller Hinton broth-cation adjusted", "value": 4}, {"measurement": "Minimum inhibitory concentration", "setting": "[1]; Enterobacter cloacae strain 4, Muller Hinton broth-cation adjusted", "value": 8}, {"measurement": "Minimum inhibitory concentration", "setting": "[1]; Enterobacter cloacae strain 5, Muller Hinton broth-cation adjusted", "value": 2}, {"measurement": "Minimum inhibitory concentration", "setting": "[2]; Escherichia coli strain 1", "value": 8}, {"measurement": "Minimum inhibitory concentration", "setting": "[2]; Escherichia coli strain 2", "value": 1}, {"measurement": "Minimum inhibitory concentration", "setting": "[2]; Escherichia coli strain 3", "value": 1}, {"measurement": "Minimum inhibitory concentration", "setting": "[2]; Escherichia coli strain 4", "value": 1}, {"measurement": "Minimum inhibitory concentration", "setting": "[2]; Escherichia coli strain 5", "value": 1}, {"measurement": "Minimum inhibitory concentration", "setting": "[3]; Klebsiella pneumoniae strain 1, Muller Hinton broth-cation adjusted", "value": 8}, {"measurement": "Minimum inhibitory concentration", "setting": "[3]; Klebsiella pneumoniae strain 2, Muller Hinton broth-cation adjusted", "value": 4}, {"measurement": "Minimum inhibitory concentration", "setting": "[3]; Klebsiella pneumoniae strain 3, Muller Hinton broth-cation adjusted", "value": 16}, {"measurement": "Minimum inhibitory concentration", "setting": "[3]; Klebsiella pneumoniae strain 4, Muller Hinton broth-cation adjusted", "value": 4}, {"measurement": "Minimum inhibitory concentration", "setting": "[3]; Klebsiella pneumoniae strain 5, Muller Hinton broth-cation adjusted", "value": 2}, {"measurement": "Minimum inhibitory concentration", "setting": "[4]; Pseudomonas aeruginosa strain 1, Muller Hinton broth-cation adjusted", "value": 4}, {"measurement": "Minimum inhibitory concentration", "setting": "[4]; Pseudomonas aeruginosa strain 2, Muller Hinton broth-cation adjusted", "value": 16}, {"measurement": "Minimum inhibitory concentration", "setting": "[4]; Pseudomonas aeruginosa strain 3, Muller Hinton broth-cation adjusted", "value": 8}, {"measurement": "Minimum inhibitory concentration", "setting": "[4]; Pseudomonas aeruginosa strain 4, Muller Hinton broth-cation adjusted", "value": 8}, {"measurement": "Minimum inhibitory concentration", "setting": "[4]; Pseudomonas aeruginosa strain 5, Muller Hinton broth-cation adjusted", "value": 4}, {"measurement": "Minimum inhibitory concentration", "setting": "[5]; Proteus mirabilis strain 1, Muller Hinton broth-cation adjusted", "value": ">128"}, {"measurement": "Minimum inhibitory concentration", "setting": "[5]; Proteus mirabilis strain 2, Muller Hinton broth-cation adjusted", "value": 32}, {"measurement": "Minimum inhibitory concentration", "setting": "[5]; Proteus mirabilis strain 3, Muller Hinton broth-cation adjusted", "value": 64}, {"measurement": "Minimum inhibitory concentration", "setting": "[5]; Proteus mirabilis strain 4, Muller Hinton broth-cation adjusted", "value": ">128"}, {"measurement": "Minimum inhibitory concentration", "setting": "[5]; Proteus mirabilis strain 5, Muller Hinton broth-cation adjusted", "value": ">128"}, {"measurement": "Minimum inhibitory concentration", "setting": "[6]; Staphylococcus aureus strain 1, Muller Hinton broth-cation adjusted", "value": 1}, {"measurement": "Minimum inhibitory concentration", "setting": "[6]; Staphylococcus aureus strain 2, Muller Hinton broth-cation adjusted", "value": 2}, {"measurement": "Minimum inhibitory concentration", "setting": "[6]; Staphylococcus aureus strain 3, Muller Hinton broth-cation adjusted", "value": 2}, {"measurement": "Minimum inhibitory concentration", "setting": "[6]; Staphylococcus aureus strain 4, Muller Hinton broth-cation adjusted", "value": 1}, {"measurement": "Minimum inhibitory concentration", "setting": "[6]; Staphylococcus aureus strain 5, Muller Hinton broth-cation adjusted", "value": 1}, {"measurement": "Minimum inhibitory concentration", "setting": "[7]; Streptococcus pneumoniae strain 1, Muller Hinton broth-cation adjusted", "value": 4}, {"measurement": "Minimum inhibitory concentration", "setting": "[7]; Streptococcus pneumoniae strain 2, Muller Hinton broth-cation adjusted", "value": 4}, {"measurement": "Minimum inhibitory concentration", "setting": "[7]; Streptococcus pneumoniae strain 3, Muller Hinton broth-cation adjusted", "value": 4}, {"measurement": "Minimum inhibitory concentration", "setting": "[7]; Streptococcus pneumoniae strain 4, Muller Hinton broth-cation adjusted", "value": 4}, {"measurement": "Minimum inhibitory concentration", "setting": "[7]; Streptococcus pneumoniae strain 5, Muller Hinton broth-cation adjusted", "value": 4}, {"measurement": "Minimum inhibitory concentration", "setting": "[8]; Serratia marcescens strain 1, Muller Hinton broth-cation adjusted", "value": ">128"}, {"measurement": "Minimum inhibitory concentration", "setting": "[8]; Serratia marcescens strain 2, Muller Hinton broth-cation adjusted", "value": ">128"}, {"measurement": "Minimum inhibitory concentration", "setting": "[8]; Serratia marcescens strain 3, Muller Hinton broth-cation adjusted", "value": 128}, {"measurement": "Minimum inhibitory concentration", "setting": "[8]; Serratia marcescens strain 4, Muller Hinton broth-cation adjusted", "value": ">128"}, {"measurement": "Minimum inhibitory concentration", "setting": "[8]; Serratia marcescens strain 5, Muller Hinton broth-cation adjusted", "value": ">128"}, {"measurement": "Minimum inhibitory concentration", "setting": "[9]; Acinetobacter baumannii strain 1, Muller Hinton broth-cation adjusted", "value": 4}, {"measurement": "Minimum inhibitory concentration", "setting": "[9]; Acinetobacter baumannii strain 2, Muller Hinton broth-cation adjusted", "value": 4}, {"measurement": "Minimum inhibitory concentration", "setting": "[9]; Acinetobacter baumannii strain 3, Muller Hinton broth-cation adjusted", "value": 4}, {"measurement": "Minimum inhibitory concentration", "setting": "[9]; Acinetobacter baumannii strain 4, Muller Hinton broth-cation adjusted", "value": 4}, {"measurement": "Minimum inhibitory concentration", "setting": "[9]; Acinetobacter baumannii strain 5, Muller Hinton broth-cation adjusted", "value": 4}, {"measurement": "Minimum inhibitory concentration, C. glabrata strain 1", "setting": "C. glabrata; clinical yeast strain 1", "value": 4}, {"measurement": "Minimum inhibitory concentration, C. glabrata strain 2", "setting": "C. glabrata; clinical yeast strain 2", "value": 8}, {"measurement": "Minimum inhibitory concentration, C. glabrata strain 3", "setting": "C. glabrata; clinical yeast strain 3", "value": 32}, {"measurement": "Minimum inhibitory concentration, C. glabrata strain 4", "setting": "C. glabrata; clinical yeast strain 4", "value": 32}, {"measurement": "Minimum inhibitory concentration, C. parapsilosis strain 1", "setting": "C. parapsilosis; clinical yeast strain 1", "value": 4}, {"measurement": "Minimum inhibitory concentration, C. parapsilosis strain 2", "setting": "C. parapsilosis; clinical yeast strain 2", "value": 4}, {"measurement": "Minimum inhibitory concentration, C. parapsilosis strain 3", "setting": "C. parapsilosis; clinical yeast strain 3", "value": 8}, {"measurement": "Minimum inhibitory concentration, C. parapsilosis strain 4", "setting": "C. parapsilosis; clinical yeast strain 4", "value": 8}, {"measurement": "Minimum inhibitory concentration, Candida albicans strain 1", "setting": "Candida albicans; clinical yeast strain 1", "value": 8}, {"measurement": "Minimum inhibitory concentration, Candida albicans strain 2", "setting": "Candida albicans; clinical yeast strain 2", "value": 8}, {"measurement": "Minimum inhibitory concentration, Candida albicans strain 3", "setting": "Candida albicans; clinical yeast strain 3", "value": 8}, {"measurement": "Minimum inhibitory concentration, Candida albicans strain 4", "setting": "Candida albicans; clinical yeast strain 4", "value": 8}, {"measurement": "Minimum inhibitory concentration, Candida albicans strain 5", "setting": "Candida albicans; clinical yeast strain 5", "value": 8}, {"measurement": "Minimum inhibitory concentration, C. quillermondiae strain 1", "setting": "C. quillermondiae", "value": 4}]}]}
